In US11739098B2 (BRISTOL-MYERS SQUIBB COMPANY, priority 2017, dated 2023):

Assays:
Type in all cases: cell-based
human TLR8 = target: T1, human TLR8 (Homo sapiens, UniProt Q9NR97); assay: TLR8 inhibition reporter assay (HEK-Blue cells, SEAP reporter, R848 stimulation); conditions: HEK-Blue cells overexpressing human TLR8, SEAP reporter, R848 15.9 μM
T1 construct: host or cells: HEK-Blue cells (HEK293-derived reporter line)
T1 sequence (Q9NR97 27-1041): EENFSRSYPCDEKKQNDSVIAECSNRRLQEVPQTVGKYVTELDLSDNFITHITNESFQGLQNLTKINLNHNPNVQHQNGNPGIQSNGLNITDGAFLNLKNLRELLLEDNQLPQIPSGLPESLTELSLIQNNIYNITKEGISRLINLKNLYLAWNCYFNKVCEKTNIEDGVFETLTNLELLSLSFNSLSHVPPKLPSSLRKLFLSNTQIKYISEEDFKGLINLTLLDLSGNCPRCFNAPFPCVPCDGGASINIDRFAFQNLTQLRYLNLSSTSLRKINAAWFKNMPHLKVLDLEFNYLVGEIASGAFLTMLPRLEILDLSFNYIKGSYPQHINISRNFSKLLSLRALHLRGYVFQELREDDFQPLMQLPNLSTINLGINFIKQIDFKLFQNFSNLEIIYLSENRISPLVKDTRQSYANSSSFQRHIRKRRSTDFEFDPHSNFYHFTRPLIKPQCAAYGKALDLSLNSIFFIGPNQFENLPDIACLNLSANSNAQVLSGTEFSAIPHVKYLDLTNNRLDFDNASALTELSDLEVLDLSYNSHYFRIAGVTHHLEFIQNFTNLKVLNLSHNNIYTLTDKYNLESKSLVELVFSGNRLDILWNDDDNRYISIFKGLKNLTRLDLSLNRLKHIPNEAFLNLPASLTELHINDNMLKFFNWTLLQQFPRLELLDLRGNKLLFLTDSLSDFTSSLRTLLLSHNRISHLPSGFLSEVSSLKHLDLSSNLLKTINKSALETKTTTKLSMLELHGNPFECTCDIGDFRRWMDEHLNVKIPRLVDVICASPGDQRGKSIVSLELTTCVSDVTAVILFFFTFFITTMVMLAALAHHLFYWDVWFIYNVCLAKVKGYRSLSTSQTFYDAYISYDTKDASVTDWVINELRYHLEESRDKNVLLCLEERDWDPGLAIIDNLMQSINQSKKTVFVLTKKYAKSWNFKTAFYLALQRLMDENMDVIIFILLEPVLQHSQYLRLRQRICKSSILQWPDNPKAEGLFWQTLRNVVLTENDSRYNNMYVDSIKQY
Summary of the method: (§1)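 Cells seeded per well (15000 TLR7, 20,000 TLR8, 25,000 TLR9); compound added over 0.05 nM–50 μM for 30 min at room temperature; agonist added (TLR7 gardiquimod 7.5 μM, TLR8 R848 15.9 μM, TLR9 ODN2006 5 nM); 22 h at 37 °C; SEAP measured; percent inhibition calculated.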

human TLR7 = target: T2, human TLR7 (Homo sapiens, UniProt Q9NYK1); assay: TLR7 inhibition reporter assay (HEK-Blue cells, SEAP reporter, gardiquimod stimulation); conditions: HEK-Blue cells overexpressing human TLR7, SEAP reporter, gardiquimod 7.5 μM
T2 construct: host or cells: HEK-Blue cells (HEK293-derived reporter line)
T2 sequence (Q9NYK1 27-1049): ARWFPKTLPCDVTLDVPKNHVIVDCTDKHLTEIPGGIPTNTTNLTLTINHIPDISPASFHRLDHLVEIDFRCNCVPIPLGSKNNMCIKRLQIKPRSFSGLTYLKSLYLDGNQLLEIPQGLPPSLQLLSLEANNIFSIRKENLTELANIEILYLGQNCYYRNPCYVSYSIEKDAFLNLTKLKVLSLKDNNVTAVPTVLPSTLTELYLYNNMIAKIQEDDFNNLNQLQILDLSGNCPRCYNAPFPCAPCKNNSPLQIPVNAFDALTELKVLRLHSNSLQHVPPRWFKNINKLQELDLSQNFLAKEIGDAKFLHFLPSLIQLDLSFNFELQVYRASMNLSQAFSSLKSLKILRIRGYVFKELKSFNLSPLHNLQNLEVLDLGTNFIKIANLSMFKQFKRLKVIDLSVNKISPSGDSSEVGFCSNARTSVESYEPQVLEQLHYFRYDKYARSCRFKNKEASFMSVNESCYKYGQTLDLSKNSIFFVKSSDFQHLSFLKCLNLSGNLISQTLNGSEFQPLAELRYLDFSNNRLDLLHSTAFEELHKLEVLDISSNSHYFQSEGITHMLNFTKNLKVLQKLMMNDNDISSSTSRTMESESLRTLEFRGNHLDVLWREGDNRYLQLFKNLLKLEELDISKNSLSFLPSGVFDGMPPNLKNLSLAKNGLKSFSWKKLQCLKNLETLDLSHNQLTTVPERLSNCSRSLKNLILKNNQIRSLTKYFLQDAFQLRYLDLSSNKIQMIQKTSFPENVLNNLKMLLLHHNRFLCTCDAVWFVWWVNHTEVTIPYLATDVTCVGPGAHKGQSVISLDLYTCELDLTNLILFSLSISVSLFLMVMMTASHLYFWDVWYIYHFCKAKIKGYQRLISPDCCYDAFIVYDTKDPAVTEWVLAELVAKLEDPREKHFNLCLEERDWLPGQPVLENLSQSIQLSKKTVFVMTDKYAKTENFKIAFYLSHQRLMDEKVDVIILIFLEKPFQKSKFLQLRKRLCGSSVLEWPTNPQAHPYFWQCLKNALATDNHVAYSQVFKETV
Summary of the method: as §1

human TLR9 = target: T3, human TLR9 (Homo sapiens, UniProt Q9NR96); assay: TLR9 inhibition reporter assay (HEK-Blue cells, SEAP reporter, ODN2006 stimulation); conditions: HEK-Blue cells overexpressing human TLR9, SEAP reporter, ODN2006 5 nM
T3 construct: host or cells: HEK-Blue cells (HEK293-derived reporter line)
T3 sequence (Q9NR96 26-1032): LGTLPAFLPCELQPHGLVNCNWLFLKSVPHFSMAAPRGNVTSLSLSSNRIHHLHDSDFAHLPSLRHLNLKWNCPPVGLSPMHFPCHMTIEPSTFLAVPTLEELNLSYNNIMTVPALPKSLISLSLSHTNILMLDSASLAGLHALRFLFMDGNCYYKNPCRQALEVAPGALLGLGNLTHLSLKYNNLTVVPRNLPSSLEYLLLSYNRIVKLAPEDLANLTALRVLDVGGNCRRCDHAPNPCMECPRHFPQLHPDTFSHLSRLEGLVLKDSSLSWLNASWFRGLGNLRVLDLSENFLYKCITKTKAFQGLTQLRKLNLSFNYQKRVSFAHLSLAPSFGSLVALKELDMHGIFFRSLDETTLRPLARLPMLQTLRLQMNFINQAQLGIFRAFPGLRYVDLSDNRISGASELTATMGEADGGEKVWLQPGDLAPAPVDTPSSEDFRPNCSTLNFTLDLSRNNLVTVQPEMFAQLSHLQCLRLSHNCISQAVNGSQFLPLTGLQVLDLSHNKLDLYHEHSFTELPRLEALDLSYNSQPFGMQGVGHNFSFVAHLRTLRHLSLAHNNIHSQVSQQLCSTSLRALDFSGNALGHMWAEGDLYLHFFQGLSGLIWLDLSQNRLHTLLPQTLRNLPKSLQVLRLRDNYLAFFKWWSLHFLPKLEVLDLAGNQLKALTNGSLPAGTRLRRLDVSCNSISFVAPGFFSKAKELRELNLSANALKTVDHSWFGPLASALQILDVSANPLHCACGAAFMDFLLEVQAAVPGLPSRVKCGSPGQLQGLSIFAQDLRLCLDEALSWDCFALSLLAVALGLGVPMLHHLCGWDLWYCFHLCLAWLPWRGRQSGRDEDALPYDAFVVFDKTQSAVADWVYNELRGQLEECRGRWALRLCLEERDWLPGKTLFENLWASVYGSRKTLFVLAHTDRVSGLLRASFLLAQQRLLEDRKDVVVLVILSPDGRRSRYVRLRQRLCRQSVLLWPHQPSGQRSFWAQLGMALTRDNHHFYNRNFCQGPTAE
Summary of the method: as §1

IC50 (human TLR8) [µM]	IC50 (human TLR7) [µM]	IC50 (human TLR9) [µM]	SMILES
< 0.1	0.1 to 1	0.1 to 1	CC(C)c1c(-c2ccc3cnnn3c2)[nH]c2ccc(C3CCN(C4CCOCC4)CC3)cc12 [Example 695, 6-(3-isopropyl-5-(1-(tetrahydro-2H-pyran-4-yl)piperidin-4-yl)-1H-indol-2-yl)-[1,2,3]triazolo[1,5-a]pyridine]
< 0.1	< 0.1	< 0.1	Cc1c(-c2ccnc3[nH]ncc23)[nH]c2ccc(C3CCN(C4CCN(C(C)C)CC4)CC3)cc12 [Example 833, 4-(5-(1′-isopropyl-[1,4′-bipiperidin]-4-yl)-3-methyl-1H-indol-2-yl)-1H-pyrazolo[3,4-b]pyridine]
0.1 to 1	< 0.1	1 to 50	Cc1cc(-c2[nH]c3ccc(C4CCN(C5COC5)CC4)cc3c2C(C)C)cc2cccnc12 [Example 723, 6-(3-isopropyl-5-(1-(oxetan-3-yl)piperidin-4-yl)-1H-indol-2-yl)-8-methylquinoline]
1 to 50	1 to 50	0.1 to 1	Cc1c(-c2ccnn3ccnc23)[nH]c2ccc(C3CCN(C4CCN(C(C)C)CC4)CC3)cc12 [Example 807, 8-(5-(1′-isopropyl-[1,4′-bipiperidin]-4-yl)-3-methyl-1H-indol-2-yl)imidazo[1,2-b]pyridazine]
< 0.1	1 to 50	< 0.1	Cc1c(-c2ccnc3c2ccn3C)[nH]c2ccc(C3CCN(C4CCN(CC(C)C)CC4)CC3)cc12 [Example 843, 4-(5-(1′-isobutyl-[1,4′-bipiperidin]-4-yl)-3-methyl-1H-indol-2-yl)-1-methyl-1H-pyrrolo[2,3-b]pyridine]

Continued, compound first:

SMILES	IC50 (human TLR8) [µM]	IC50 (human TLR7) [µM]	IC50 (human TLR9) [µM]
CC(C)c1c(-c2ccnc3[nH]ncc23)[nH]c2ccc(C3CCN(C(=O)CCN4CCCCC4)CC3)cc12 [Example 641, 1-(4-(3-isopropyl-2-(1H-pyrazolo[3,4-b]pyridin-4-yl)-1H-indol-5-yl)piperidin-1-yl)-3-(piperidin-1-yl)propan-1-one]	< 0.1	< 0.1	1 to 50
Fc1cc(-c2[nH]c3ccc(C4CCNCC4)cc3c2CC(F)F)cn2ccnc12 [Example 131, 6-(3-(2,2-difluoroethyl)-5-(piperidin-4-yl)-1H-indol-2-yl)-8-fluoroimidazo[1,2-a] pyridine]	0.1 to 1	< 0.1	0.1 to 1
CC(C)c1c(-c2ccc3nccn3c2)[nH]c2ccc(C3CCNCC3)c(F)c12 [Example 258, 6-(4-fluoro-3-isopropyl-5-(piperidin-4-yl)-1H-indol-2-yl)imidazo[1,2-a]pyridine]	< 0.1	< 0.1	0.1 to 1
CNC(=O)CN1CCC(c2ccc3[nH]c(-c4cn5nnnc5cc4C)c(C(C)C)c3c2)CC1 [Example 316, 2-(4-(3-isopropyl-2-(7-methyltetrazolo[1,5-a]pyridin-6-yl)-1H-indol-5-yl)piperidin-1-yl)-N-methylacetamide]	0.1 to 1	< 0.1	1 to 50
CNC(=O)CN1CCC(c2ccc3[nH]c(-c4cc(C)n5cc(C)nc5c4)c(C(C)C)c3c2)CC1 [Example 352, 2-(4-(2-(2,5-dimethylimidazo[1,2-a]pyridin-7-yl)-3-isopropyl-1H-indol-5-yl)piperidin-1-yl)-N-methylacetamide]	0.1 to 1	0.1 to 1	0.1 to 1
CCc1c(-c2c[nH]c3ncccc23)[nH]c2ccc(C3CCNCC3)cc12 [Example 243, 3-(3-ethyl-5-(piperidin-4-yl)-1H-indol-2-yl)-1H-pyrrolo[2,3-b]pyridine]	< 0.1	< 0.1	0.1 to 1
CC(C)c1c(-c2ccc3nccn3n2)[nH]c2ccc(C3CCNCC3)cc12 [Example 27, 6-(3-isopropyl-5-(piperidin-4-yl)-1H-indol-2-yl)imidazo[1,2-b]pyridazine]	< 0.1	< 0.1	1 to 50
CNCCN1CCC(c2ccc3[nH]c(-c4ccc5nccn5c4)c(CC(F)F)c3c2)CC1 [Example 681, 2-(4-(3-(2,2-difluoroethyl)-2-(imidazo[1,2-a]pyridin-6-yl)-1H-indol-5-yl)piperidin-1-yl)-N-methylethan-1-amine]	< 0.1	< 0.1	< 0.1
CNC(=O)CN1CCC(c2ccc3[nH]c(-c4cn5ccnc5c(C)c4C)c(C(C)C)c3c2)CC1 [Example 413, 2-(4-(2-(7,8-dimethylimidazo[1,2-a]pyridin-6-yl)-3-isopropyl-1H-indol-5-yl)piperidin-1-yl)-N-methylacetamide]	< 0.1	< 0.1	0.1 to 1
Cc1c(-c2ccc3[nH]nnc3c2)[nH]c2ccc(C3CCNCC3)cc12 [Example 52, 5-(3-methyl-5-(piperidin-4-yl)-1H-indol-2-yl)-1H-benzo[d][1,2,3]triazole]	1 to 50	1 to 50	0.1 to 1
